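Test compounds were applied to cells in 96-well plates for 48 hours at 5 doses. At the GI50, growth is halved.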 Activity calls are given as the source filed them. No stated cut-off is given here; in the data, active = GI50 up to about 1.1 µM and inactive = higher.
Columns and labels:
Assay in all cases: inhibition of tumour cell growth, NCI panel, 48 h
[1] = test system: A498
[2] = test system: K562
[3] = test system: SF-268
[4] = test system: SF-295
[5] = test system: SR
[6] = test system: OVCAR-4
[7] = test system: NCI-H460
[8] = test system: SN12C
[9] = test system: UACC-257
[10] = test system: NCI-H522
[11] = test system: OVCAR-3
[12] = test system: RPMI-8226
[13] = test system: RXF 393
[14] = test system: 786-0
[15] = test system: HT-29
[16] = test system: CCRF-CEM
[17] = test system: HL-60
[18] = test system: A549
[19] = test system: SF-539
[20] = test system: SK-MEL-28

Row | SMILES | GI50 [1] | GI50 [2] | GI50 [3] | GI50 [4] | GI50 [5] | GI50 [6] | GI50 [7] | GI50 [8] | GI50 [9] | GI50 [10] | GI50 [11] | GI50 [12] | GI50 [13] | GI50 [14] | GI50 [15] | GI50 [16] | GI50 [17] | GI50 [18] | GI50 [19] | GI50 [20]
1 | COc1cc2c(cc1OC)C(=O)N(NC1=NCCN1)C2=O | > 100 µM (inactive) | > 100 µM (inactive) | > 100 µM (inactive) | > 100 µM (inactive) | 63 µM (inactive) | > 100 µM (inactive) | > 100 µM (inactive) | > 100 µM (inactive) | > 100 µM (inactive) | > 100 µM (inactive) | > 100 µM (inactive) | > 100 µM (inactive) | > 100 µM (inactive) | > 100 µM (inactive) | > 100 µM (inactive) | > 100 µM (inactive) | > 100 µM (inactive) | > 100 µM (inactive) | > 100 µM (inactive) | > 100 µM (inactive)
2 | O=C1c2ccccc2C(=O)c2[nH]c(=O)c(/C=N/Nc3ccc([N+](=O)[O-])cc3)nc21 | 4.67 µM (inactive) | > 43.6 µM (inactive) | 8.59 µM (inactive) | 3.32 µM (inactive) | 17.5 µM (inactive) | 18.4 µM (inactive) | 2.06 µM (inactive) | 11.9 µM (inactive) | 2.15 µM (inactive) | 3.23 µM (inactive) | 2.92 µM (inactive) | > 37 µM (inactive) | 6.04 µM (inactive) | 15.9 µM (inactive) | 2.59 µM (inactive) | > 35.5 µM (inactive) | 8.79 µM (inactive) | 3.52 µM (inactive) | 5.93 µM (inactive) | 5.47 µM (inactive)
3 | CSC1(SC)N2Cc3ccccc3N=C2C1(c1ccccc1)c1ccccc1 | 15.7 µM (inactive) | 10.1 µM (inactive) | 21.3 µM (inactive) | 11.1 µM (inactive) | 1.95 µM (inactive) | 10.1 µM (inactive) | 7.48 µM (inactive) | 20.5 µM (inactive) | 13 µM (inactive) | 5.96 µM (inactive) | 6.4 µM (inactive) | 5.38 µM (inactive) | 9.82 µM (inactive) | 22.5 µM (inactive) | 11.6 µM (inactive) | 8.73 µM (inactive) | 6.08 µM (inactive) | 13.8 µM (inactive) | 12.8 µM (inactive) | 38.1 µM (inactive)
4 | CC1(C)OC2OC(COC(=O)C(c3ccccc3)c3ccccc3)C3OC(C)(C)OC3C2O1 (stereo not given) | > 10 µM (inactive) | 4.29 µM (inactive) | 16.9 µM (inactive) | 10.7 µM (inactive) | > 10 µM (inactive) | 8.71 µM (inactive) | 4.84 µM (inactive) | 90.2 µM (inactive) | > 10 µM (inactive) | 21.6 µM (inactive) | > 10 µM (inactive) | 4.5 µM (inactive) | 12.3 µM (inactive) | 24.7 µM (inactive) | 8.79 µM (inactive) | 17.1 µM (inactive) | 4.21 µM (inactive) | 26.1 µM (inactive) | 95.9 µM (inactive) | 43.5 µM (inactive)
5 | CCN(CC)CCn1nc2c3c(c(NCCN)ccc31)Sc1cc(O)ccc1-2 | 1.36 µM (inactive) | 0.314 µM (active) | 0.493 µM (active) | 0.861 µM (active) | 0.201 µM (active) | 0.528 µM (active) | 0.0715 µM (active) | 0.372 µM (active) | 1.84 µM (inactive) | 0.175 µM (active) | 2.43 µM (inactive) | 0.377 µM (active) | 1.14 µM (inactive) | 0.741 µM (active) | 0.507 µM (active) | 0.166 µM (active) | 0.0962 µM (active) | 0.176 µM (active) | 0.406 µM (active) | 1.38 µM (inactive)
6 | COc1ccc2nc3cc(Cl)ccc3c(NCCCCCC(=O)NC(COc3ccc4ccc5cccnc5c4n3)COc3ccc4ccc5cccnc5c4n3)c2c1 | 17.3 µM (inactive) | 13.5 µM (inactive) | 17.9 µM (inactive) | 29.8 µM (inactive) | 3.14 µM (inactive) | 30 µM (inactive) | 2.85 µM (inactive) | 17.8 µM (inactive) | 21.7 µM (inactive) | 24.1 µM (inactive) | 28.5 µM (inactive) | 5.58 µM (inactive) | 19.8 µM (inactive) | 15.4 µM (inactive) | 27.9 µM (inactive) | 2.28 µM (inactive) | 9.64 µM (inactive) | 15.5 µM (inactive) | 16.9 µM (inactive) | 24.2 µM (inactive)
7 | O=C(CCCN1CCC(C(O)c2ccc(F)cc2)CC1)c1ccc(F)cc1 (stereo not given) | 49 µM (inactive) | 39.7 µM (inactive) | 59.6 µM (inactive) | 63.5 µM (inactive) | 69.8 µM (inactive) | 61 µM (inactive) | 57.8 µM (inactive) | 71.9 µM (inactive) | 60.7 µM (inactive) | 66.8 µM (inactive) | 57 µM (inactive) | 66.5 µM (inactive) | 41.1 µM (inactive) | 44.9 µM (inactive) | 42.3 µM (inactive) | 76.2 µM (inactive) | 35.9 µM (inactive) | 64 µM (inactive) | 59.4 µM (inactive) | 59.3 µM (inactive)
8 | C[N+](C)(C)c1ncnc2c1ncn2C1CC(O)C(CO)O1 (stereo not given) | > 100 µM (inactive) | > 100 µM (inactive) | > 100 µM (inactive) | > 100 µM (inactive) | > 100 µM (inactive) | > 100 µM (inactive) | > 100 µM (inactive) | > 100 µM (inactive) | > 100 µM (inactive) | > 100 µM (inactive) | > 100 µM (inactive) | > 100 µM (inactive) | > 100 µM (inactive) | > 100 µM (inactive) | > 100 µM (inactive) | > 100 µM (inactive) | > 100 µM (inactive) | > 100 µM (inactive) | > 100 µM (inactive) | > 100 µM (inactive)
9 | COc1cccc(/C=C2/S/C(=N/Nc3nc(C)c(C(C)=O)s3)NC2=O)c1O | 33.9 µM (inactive) | 31.1 µM (inactive) | 40.6 µM (inactive) | 52.8 µM (inactive) | 27.7 µM (inactive) | 30.3 µM (inactive) | 29.6 µM (inactive) | 31.7 µM (inactive) | 25.4 µM (inactive) | 17.3 µM (inactive) | 22.5 µM (inactive) | 27 µM (inactive) | 28.8 µM (inactive) | 27.8 µM (inactive) | 37.6 µM (inactive) | 18.2 µM (inactive) | 12.4 µM (inactive) | 37.9 µM (inactive) | 34.8 µM (inactive) | 39.7 µM (inactive)
